Activity calls are given as the source filed them. The rule behind the calls is not given here.

This data set concerns CCRIS mutagenicity, Ames/micronucleus/aberration tests. The experiment in a line: CCRIS mutagenicity studies.
[1] abbreviates: Test System: AMES SALMONELLA TYPHIMURIUM, Strain/Indicator: TA98, Metabolic Activation: NONE, Method: STANDARD PLATE.
[2] abbreviates: Test System: AMES SALMONELLA TYPHIMURIUM, Strain/Indicator: TA98, Metabolic Activation: RAT, LIVER, S-9, AROCLOR 1254, Method: STANDARD PLATE.
The mark [3] stands for this setting: Test System: AMES SALMONELLA TYPHIMURIUM, Strain/Indicator: TA100, Metabolic Activation: NONE, Method: PREINCUBATION
Where [4] appears, read: Test System: AMES SALMONELLA TYPHIMURIUM, Strain/Indicator: TA100, Metabolic Activation: NONE, Method: STANDARD PLATE.
Where [5] appears, read: Test System: AMES SALMONELLA TYPHIMURIUM, Strain/Indicator: TA100, Metabolic Activation: RAT, LIVER, S-9, AROCLOR 1254, Method: STANDARD PLATE.
Where [6] appears, read: Test System: AMES SALMONELLA TYPHIMURIUM, Strain/Indicator: TA1535, Metabolic Activation: NONE, Method: STANDARD PLATE.
The mark [7] stands for this setting: Test System: AMES SALMONELLA TYPHIMURIUM, Strain/Indicator: TA1535, Metabolic Activation: RAT, LIVER, S-9, AROCLOR 1254, Method: STANDARD PLATE.
Where [8] appears, read: Test System: AMES SALMONELLA TYPHIMURIUM, Strain/Indicator: TA1537, Metabolic Activation: NONE, Method: STANDARD PLATE.
Setting [9] is: Test System: AMES SALMONELLA TYPHIMURIUM, Strain/Indicator: TA1537, Metabolic Activation: RAT, LIVER, S-9, AROCLOR 1254, Method: STANDARD PLATE.

Regarding `C=CC(=O)OCCCCCC`, the mutagenic call under setting [1] is “inactive; negative”; the mutagenic call under setting [2] is “inactive; negative”; the mutagenic call (Test System: AMES SALMONELLA TYPHIMURIUM, Strain/Indicator: TA98, Metabolic Activation: RAT, LIVER, S-9, SODIUM PHENOBARBITAL, Method: STANDARD PLATE) is “inactive; negative”; the mutagenic call under setting [3] is “inactive; negative”; the mutagenic call under setting [4] is “inactive; negative”; the mutagenic call (Test System: AMES SALMONELLA TYPHIMURIUM, Strain/Indicator: TA100, Metabolic Activation: RAT, LIVER, S-9, AROCLOR 1254, Method: PREINCUBATION) is “inactive; negative”. Besides, the mutagenic call under setting [5] is “inactive; negative”; the mutagenic call (Test System: AMES SALMONELLA TYPHIMURIUM, Strain/Indicator: TA100, Metabolic Activation: RAT, LIVER, S-9, SODIUM PHENOBARBITAL, Method: STANDARD PLATE) was “inactive; negative”; the mutagenic call under setting [6] was “inactive; negative”; the mutagenic call under setting [7] is “inactive; negative”; the mutagenic call (Test System: AMES SALMONELLA TYPHIMURIUM, Strain/Indicator: TA1535, Metabolic Activation: RAT, LIVER, S-9, SODIUM PHENOBARBITAL, Method: STANDARD PLATE) was “inactive; negative”; the mutagenic call under setting [8] was “inactive; negative”. Further, the mutagenic call under setting [9] is “inactive; negative”; the mutagenic call (Test System: AMES SALMONELLA TYPHIMURIUM, Strain/Indicator: TA1537, Metabolic Activation: RAT, LIVER, S-9, SODIUM PHENOBARBITAL, Method: STANDARD PLATE) was “inactive; negative”; the mutagenic call (Test System: AMES SALMONELLA TYPHIMURIUM, Strain/Indicator: TA1538, Metabolic Activation: NONE, Method: STANDARD PLATE) was “inactive; negative”; the mutagenic call (Test System: AMES SALMONELLA TYPHIMURIUM, Strain/Indicator: TA1538, Metabolic Activation: RAT, LIVER, S-9, AROCLOR 1254, Method: STANDARD PLATE) is “inactive; negative”; the mutagenic call (Test System: AMES SALMONELLA TYPHIMURIUM, Strain/Indicator: TA1538, Metabolic Activation: RAT, LIVER, S-9, SODIUM PHENOBARBITAL, Method: STANDARD PLATE) is “inactive; negative”.

Regarding `Cc1ccc(N)cc1O`, the mutagenic call (Test System: AMES SALMONELLA TYPHIMURIUM, Strain/Indicator: TA97, Metabolic Activation: HAMSTER, LIVER, S-9, AROCLOR 1254 (10%), Method: PREINCUBATION) is “active; positive”; the mutagenic call (Test System: AMES SALMONELLA TYPHIMURIUM, Strain/Indicator: TA97, Metabolic Activation: NONE, Method: PREINCUBATION) is “inactive; negative”; the mutagenic call (Test System: AMES SALMONELLA TYPHIMURIUM, Strain/Indicator: TA97, Metabolic Activation: RAT, LIVER, S-9, AROCLOR 1254 (10%), Method: PREINCUBATION) is “active; positive”; the mutagenic call (Test System: AMES SALMONELLA TYPHIMURIUM, Strain/Indicator: TA98, Metabolic Activation: HAMSTER LIVER S-9, AROCLOR 1254, Method: STANDARD PLATE) was “inactive; negative”; the mutagenic call (Test System: AMES SALMONELLA TYPHIMURIUM, Strain/Indicator: TA98, Metabolic Activation: HAMSTER, LIVER, S-9, AROCLOR 1254 (10%), Method: PREINCUBATION) was “active; positive”; the mutagenic call (Test System: AMES SALMONELLA TYPHIMURIUM, Strain/Indicator: TA98, Metabolic Activation: NONE, Method: PREINCUBATION) is “inactive; negative”. For the same compound, the mutagenic call reads like this: under setting [1], “inactive; negative”; (Test System: AMES SALMONELLA TYPHIMURIUM, Strain/Indicator: TA98, Metabolic Activation: RAT LIVER S-9, AROCLOR 1254, Method: STANDARD PLATE) “inactive; negative”; (Test System: AMES SALMONELLA TYPHIMURIUM, Strain/Indicator: TA98, Metabolic Activation: RAT, LIVER, S-9, AROCLOR 1254 (10%), Method: PREINCUBATION) “active; positive”; (Test System: AMES SALMONELLA TYPHIMURIUM, Strain/Indicator: TA100, Metabolic Activation: HAMSTER LIVER S-9, AROCLOR 1254, Method: STANDARD PLATE) “inactive; negative”; (Test System: AMES SALMONELLA TYPHIMURIUM, Strain/Indicator: TA100, Metabolic Activation: HAMSTER, LIVER, S-9, AROCLOR 1254 (10%), Method: PREINCUBATION) “active; positive”; under setting [3], “inactive; negative”. Besides, the mutagenic call reads like this: under setting [4], “inactive; negative”; (Test System: AMES SALMONELLA TYPHIMURIUM, Strain/Indicator: TA100, Metabolic Activation: RAT LIVER S-9, AROCLOR 1254, Method: STANDARD PLATE) “inactive; negative”; (Test System: AMES SALMONELLA TYPHIMURIUM, Strain/Indicator: TA100, Metabolic Activation: RAT, LIVER, S-9, AROCLOR 1254 (10%), Method: PREINCUBATION) “active; positive”; (Test System: AMES SALMONELLA TYPHIMURIUM, Strain/Indicator: TA102, Metabolic Activation: HAMSTER LIVER S-9, AROCLOR 1254, Method: STANDARD PLATE) “inactive; negative”; (Test System: AMES SALMONELLA TYPHIMURIUM, Strain/Indicator: TA102, Metabolic Activation: NONE, Method: STANDARD PLATE) “inactive; negative”; (Test System: AMES SALMONELLA TYPHIMURIUM, Strain/Indicator: TA102, Metabolic Activation: RAT LIVER S-9, AROCLOR 1254, Method: STANDARD PLATE) “inactive; negative”. The mutagenic call is “inactive; negative” (Test System: AMES SALMONELLA TYPHIMURIUM, Strain/Indicator: TA1535, Metabolic Activation: HAMSTER LIVER S-9, AROCLOR 1254, Method: STANDARD PLATE); “inactive; negative” (Test System: AMES SALMONELLA TYPHIMURIUM, Strain/Indicator: TA1535, Metabolic Activation: HAMSTER, LIVER, S-9, AROCLOR 1254 (10%), Method: PREINCUBATION); “inactive; negative” (Test System: AMES SALMONELLA TYPHIMURIUM, Strain/Indicator: TA1535, Metabolic Activation: NONE, Method: PREINCUBATION); “inactive; negative” under setting [6]; “inactive; negative” (Test System: AMES SALMONELLA TYPHIMURIUM, Strain/Indicator: TA1535, Metabolic Activation: RAT LIVER S-9, AROCLOR 1254, Method: STANDARD PLATE); “inactive; negative” (Test System: AMES SALMONELLA TYPHIMURIUM, Strain/Indicator: TA1535, Metabolic Activation: RAT, LIVER, S-9, AROCLOR 1254 (10%), Method: PREINCUBATION). Besides, the mutagenic call (Test System: AMES SALMONELLA TYPHIMURIUM, Strain/Indicator: TA1537, Metabolic Activation: HAMSTER LIVER S-9, AROCLOR 1254, Method: STANDARD PLATE) is “inactive; negative”; the mutagenic call under setting [8] is “inactive; negative”; the mutagenic call (Test System: AMES SALMONELLA TYPHIMURIUM, Strain/Indicator: TA1537, Metabolic Activation: RAT LIVER S-9, AROCLOR 1254, Method: STANDARD PLATE) was “inactive; negative”; the mutagenic call (Test System: Mouse lymphoma, Strain/Indicator: L5178Y (tk+/tk-), Metabolic Activation: None, Method: Suspension/plate) was “active; positive”; the mutagenic call (Test System: Mouse lymphoma, Strain/Indicator: L5178Y (tk+/tk-), Metabolic Activation: Rat, Liver, S-9, Aroclor 1254, Method: Suspension/plate) is “inactive; negative”.

With `O=C(O)c1cc(=O)c2cccc(O)c2[nH]1`, the mutagenic call under setting [3] is “inactive; negative”.

In the case of `CCc1cc2ccccc2c2ccc3c(c12)[C@@H]1O[C@@H]1[C@H](O)[C@H]3O`, the mutagenic call under setting [3] is “active; positive”.

For `CN(C)c1ccc(NS(=O)(=O)c2cccc3cccnc23)cc1`, the mutagenic call was “inactive; negative” under setting [1]; “active; positive” under setting [2]; “inactive; negative” under setting [4]; “active; positive” under setting [5]; “inactive; negative” under setting [6]; “inactive; negative” under setting [7]. Moreover, the mutagenic call reads like this: under setting [8], “inactive; negative”; under setting [9], “inactive; negative”.
